# Read-outs that look alike come from different tables or passages of the source.
# What was measured:
# [1] = test system: Cu2+–Aβ42 species in Neuro2A cells; experiment: Cu2+-Aβ42-induced toxicity in Neuro2A cells (Alamar Blue); type: cell-based, mouse; conditions: [Aβ42] = [Cu2+] = 40 μM, compound 10 μM (ZY-12-OMe 5 μM), 40 h
# Method: As mentioned above, compounds that are not cytotoxic at 10 μM, including ZY-12-MT, ZY-15-MT, ZY-15-OMe, ZY-17-MT, ZY-5-MT, ZY-5-DT, ZY-5-OMe, and ZY-12-OMe, were chosen for this study. Firstly, during the control studies, we observed that monomeric Aβ42 led to negligible neurotoxicity. Nevertheless, in the presence of both Cu^2+ and monomeric Aβ42, there was a significant cell death, which is likely due to the Cu^2+ associated neurotoxic Aβ42 oligomers formation.[46] […] According to the docking results, ZY-12-MT, ZY-15-OMe, ZY-15-MT, and ZY-5-OMe interact with Aβ42 tetramers mainly through residues His6, Asp7, Tyr10 (via hydrogen bonds), and Tyr10 (via π–π interactions). Some reports have also shown that His6, Asp7, and Tyr10 are potentially involved in the Cu–Aβ interactions, which explains why the compounds are able to attenuate the Cu–Aβ toxicity.[48]
# Fig. 9 Cell viability results upon incubation of Neuro2A cells with monomeric Aβ42 in the presence or absence of metal ions and amphiphilic compounds. Concentrations: [Aβ42] = 40 μM, [Cu^2+] = 40 μM, [ZY-12-MT] = [ZY-15-OMe] = [ZY-15-MT] = [ZY-17-MT] = [ZY-5-OMe] = [ZY-5-MT] = [ZY-5-DT] = 10 μM, [ZY-12-OMe] = 5 μM. The error bars represent the standard deviation from five independent experiments, and the statistical analysis was evaluated according to one-way ANOVA (*p < 0.05).
# Alamar Blue assay was chosen for the cytotoxicity studies.3 Mouse neuroblastoma Neuro2A (N2A) cells were grown with DMEM/10% FBS in a petri dish at 37 °C in a humidified atmosphere with 5% CO2. Then N2A cells were seeded in a 96-well plate (1.0 × 10^4/well). After 24 h incubation, cell media was changed to DMEM/N-2, and N2A cells were incubated for another 1 h. […]
# (§1) For the Cu2+-Aβ-induced toxicity studies, cells were treated monomeric Aβ42, Cu2+, monomeric Aβ42 + Cu2+, and monomeric Aβ42 + Cu2+ + compounds, monomeric Aβ42 + Cu2+ + copper chelators (Me2HTACN or Me3TACN), respectively. After 40 h incubation, Alamar Blue solution (10 μL) was added, and the cells were incubated for another 90 min at 37 °C. The fluorescence intensity of each well was measured at 590 nm (excitation wavelength = 560 nm). […]
# 10. The effect of copper chelators on Cu2+-Aβ42 neurotoxicity
# Figure S8. Cell viability results upon incubation of Neuro2A cells with 10 μM copper chelators (Me2HTACN or Me3TACN) in the presence or absence of 40 μM (Aβ42 + Cu2+). The error bars represent the standard deviation from five independent experiments, and the statistical analysis was evaluated according to one-way ANOVA. […]
# [2] = target: T1, Aβ42 fibrils (Homo sapiens, UniProt P05067); experiment: Fluorescence saturation binding assay with Aβ42 fibrils; conditions: for binding ratio, Fibrils: from cross point between plateau and initial slope
# T1 construct: 1 mg of commercial Aβ42 monomer powder (from GL biochem) was dissolved in 1; purchased GL biochem
# T1 sequence (P05067 672-713 limits assumed): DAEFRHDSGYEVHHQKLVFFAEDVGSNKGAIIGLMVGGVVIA
# Method: (§2) Fig. 3 Binding constant measurements of ZY-5-OMe (left), ZY-5-MT (middle), ZY-5-DT (right) with Aβ42 fibrils (top), and oligomers (bottom). The measurements were performed in 10 mM phosphate buffered saline (PBS), pH 7.4. The Kd curves were fitted in GraphPad Prism with one site-specific binding model. Equation: Y = Bmax × X/(Kd + X). [Aβ42 fibrils] = [Aβ42 oligomers] = 5 μM.
# (§3) Preparation of the Aβ42 Fibrils and Aβ42 Oligomers
# (§4) Aβ42 fibrils: 1 mg of commercial Aβ42 monomer powder (from GL biochem) was dissolved in 1
# (§5) mL 1,1,1,3,3,3-hexafluoro-2-propanol (HFIP) at room temperature and incubated for 1h. The
# (§6) resulting solution was divided equally into two Eppendorf tubes. The solution in each Eppendorf
# (§7) tube containing 0.5 mg Aβ42 monomer was then evaporated overnight and dried by vacuum
# (§8) centrifuge to generate monomeric films. 100 μM Aβ42 fibrils solution was prepared by dissolving
# (§9) the 0.5 mg monomeric films in 1.1 mL PBS buffer (with final DMSO concentration less than 1%)
# (§10) and stiring at 37 °C for 3 days.
# (§11) Aβ42 oligomers: The 0.5 mg monomeric films were dissolved in 1.1 mL PBS buffer (with final
# (§12) DMSO concentration less than 1%) and incubated at 4 °C overnight. The resulting solution was
# (§13) then centrifuged at 3000 rpm for 15 mins to remove the insoluble aggregates. The clear supernatant
# (§14) was then used for the following experiments. […]
# (§15) In Vitro Saturation Binding Studies with Aβ42 Fibrils and Aβ42 Oligomers
# (§16) To a solution of increasing concentrations of compounds, a fixed concentration of the generated
# (§17) aggregated Aβ42 fibrils or Aβ42 oligomers solutions (5 to 15 μM) was added to yield a total volume
# (§18) of 100 μL. Nonspecific binding was determined without compounds. The mixture was incubated
# (§19) for 15 min at room temperature. All fluorescence data were obtained on a SpectraMax M2e plate
# (§20) reader (Molecular Devices).
# [3] = target: T2, Aβ42 oligomers (Homo sapiens, UniProt P05067); experiment: Fluorescence saturation binding assay with Aβ42 oligomers; conditions: for Kd / binding ratio, Oligomers: Aβ42 oligomers; for Kd: 10 mM PBS pH 7.4, one site-specific binding model; for binding ratio, Oligomers: from cross point between plateau and initial slope; for binding preference oligomers vs fibrils (from Kd values): lower Kd for Aβ oligomers than Aβ fibrils
# T2 construct: 1 mg of commercial Aβ42 monomer powder (from GL biochem) was dissolved in 1; purchased GL biochem
# T2 sequence (P05067 672-713 limits assumed): as above
# Method: as §2, §3, §4, §5, §6, §7, §8, §9, §10, §11, §12, §13, §14, §15, §16, §17, §18, §19, §20
# [4] = Log D by octanol-PBS partition assay; type: physicochemical; conditions: pH 7.4, fluorescence readout
# Method: In order to confirm that the compounds can also bind to native Aβ species, brain sections collected from 9-month-old 5xFAD transgenic mice have been employed in the fluorescence imaging studies. […] The brain sections were first incubated with our compounds, followed by Congo Red (CR), which is a well-established fluorescent probe that can bind to Aβ plaques.[34] The treated brain sections were then imaged using fluorescence microscope. […] Immunostaining with the CF594-conjugated HJ 3.4 antibody (CF594-HJ3.4) was also performed to confirm that these six compounds can bind to Aβ species specifically in the brain sections (Fig. 5). Moreover, the log D values of the compounds were also measured by octanol-PBS partition assays.[35] […]
# The Log D value was measured following a published procedure using slight modifications.4 In general, compounds in 0.5 mL octanol was subjected to partition with 0.5 mL octanol-saturated
# PBS. The whole mixture was stirred vigorously for 5 min, and centrifuged at 2,000 rpm for 5 min.
# The top octanol layer was separated for later fluorescence measurement. The remaining PBS layer was partitioned with 0.5 mL PBS-saturated octanol, and the second top octanol layer was then separated after vigorous stirring and centrifuging at 2,000 rpm for another 5 min. The two octanol layers’ fluorescence spectra were recorded. The log D value was calculated by the fluorescence intensity ratio at the compounds’ emission wavelength for the above two octanol extractions. […]
# [5] = Alamar Blue cytotoxicity assay in N2a cells; type: cell-based, mouse; conditions: mouse, N2a (Neuro2A) neuroblastoma cells, up to 10 μM, 40 h, read-out: cell viability
# Method: (§21) After confirming these amphiphilic compounds can bind to Aβ species both in vitro and ex vivo, we next investigated whether these compounds could attenuate the toxicity of the Cu–Aβ species, as the Cu^2+ ions were reported to promote the formation of neurotoxic soluble Aβ42 oligomers.[45,46] Firstly, the Alamar Blue cell viability assay was used to measure the cytotoxicity of the compounds at different concentrations ranging from 20 μM to 2 μM in mouse neuroblastoma N2a cells (Fig. 8). […] Considering its high binding affinity to both Aβ fibrils and oligomers, we also further tested its ability to alleviate Cu^2+–Aβ42-induced toxicity. […] The underlying mechanism is unclear, but we propose that these compounds might perform similarly to the toxic oligomers that bind to some cell membrane receptors or insert into the membrane lipids to form porous channels.
# (§22) Alamar Blue assay was chosen for the cytotoxicity studies.3 Mouse neuroblastoma Neuro2A (N2A) cells were grown with DMEM/10% FBS in a petri dish at 37 °C in a humidified atmosphere with 5% CO2. Then N2A cells were seeded in a 96-well plate (1.0 × 10^4/well). After 24 h incubation, cell media was changed to DMEM/N-2, and N2A cells were incubated for another 1 h. Then the cells were treated with different concentrations of compounds for 40 h, Alamar Blue solution (10 μL) was added, and the cells were incubated for another 90 min at 37 °C. The fluorescence intensity of each well was measured at 590 nm (excitation wavelength = 560 nm).
# as §1
# [6] = target: T3, Aβ plaques in 5xFAD mice brain sections (Homo sapiens, UniProt P05067); experiment: Fluorescence imaging of 5xFAD mouse brain sections, colocalization with Congo Red; conditions: 9-month-old 5xFAD brain sections; compound 5 μM, Congo red 2.5 μM
# T3 construct: aggregated Aβ species were commonly observed in brain sections from 5xFAD transgenic mice; tissue Jackson Laboratories; host or cells: brain sections of 9-month-old 5xFAD transgenic mice
# T3 sequence (P05067 672-713 limits assumed): as above
# Method: In order to confirm that the compounds can also bind to native Aβ species, brain sections collected from 9-month-old 5xFAD transgenic mice have been employed in the fluorescence imaging studies. […] The brain sections were first incubated with our compounds, followed by Congo Red (CR), which is a well-established fluorescent probe that can bind to Aβ plaques.[34] The treated brain sections were then imaged using fluorescence microscope. […] Immunostaining with the CF594-conjugated HJ 3.4 antibody (CF594-HJ3.4) was also performed to confirm that these six compounds can bind to Aβ species specifically in the brain sections (Fig. 5). Moreover, the log D values of the compounds were also measured by octanol-PBS partition assays.[35]
# Fig. 4 Fluorescence microscopy images of 5xFAD mice brain sections co-incubated with amphiphilic compounds (top), Congo red (middle) and merged images (bottom, along with the Parson's correlation coefficients R). Concentrations: [amphiphilic compounds] = 5 μM, [Congo red] = 2.5 μM; scale bar: 125 μm. TEXT PRINTED IN THE PICTURE: ZY-5-MT: Merged R= 0.84 | ZY-12-DT: Merged R= 0.52 | ZY-12-OMe: Merged R= 0.77 | ZY-15-OMe: Merged R= 0.77 | ZY-17-DT: Merged R= 0.77 | ZY-17-OMe: Merged R= 0.72 […]
# Histological Staining of 5×FAD Mice Brain Sections
# 5xFAD transgenic mice brain sections were blocked with bovine serum albumin (2% BSA in PBS, pH 7.4, 10 min). Then the mice brain sections were transferred to a PBS solution of the compound and incubated for 1 h. After which, the brain sections were transferred to a PBS solution of Congo Red or antibody HJ 3.4 (Professor David Holtzman, 1 μg/ml) and incubated for another 1 h. Then, the brain sections were treated with BSA again (5 min) followed by washing with PBS (3 × 2 min), DI water (3 × 2 min). Finally, the mice brain sections were mounted with non-fluorescent mounting media, and the images were obtained by using EVOS FL Auto 2. ImageJ Fiji program was used for colocalization analysis and determination of the Pearson’s correlation coefficient. The primary
# [7] = test system: mouse neuroblastoma N2a cells; experiment: Alamar Blue cytotoxicity assay in N2a cells; type: cell-based; conditions: 2 to 20 μM
# Method: as §21, §22, §1
# [8] = Aβ42 fibrils, 10 mM PBS pH 7.4, one site-specific binding model, read-out: Kd, Fibrils
SMILES,"effect on Cu2+–Aβ42-induced toxicity (cell viability, in words) [1]","Kd [2, 8]","binding ratio, Fibrils ([2]; Aβ42 fibrils)",Kd [3],"binding ratio, Oligomers [3]",logD [4],viability at 40 h [5],"Kd ([2]; another trial, [Aβ42 fibrils] = 5 μM, PBS pH 7.4 (Fig. S5), read-out: Kd, Aβ42 fibrils, another trial)",selectivity to Aβ oligomers (times higher than that for Aβ fibrils) ([3]; from Kd values fibrils vs oligomers),binding preference oligomers vs fibrils (from Kd values) [3],"Pearson's correlation coefficient R, colocalization with Congo Red [6]",cytotoxicity (in words) [7]
"CN1CCNCCN(C)CC1 [Me2HTACN, 1,4-dimethyl-1,4,7-triazacyclononane, reference compound]",not able to alleviate the neurotoxicity,–,–,–,–,–,–,–,–,–,–,–
"CN1CCN(C)CCN(C)CC1 [Me3TACN, 1,4,7-trimethyl-1,4,7-triazacyclononane, reference compound]",not able to alleviate the neurotoxicity,–,–,–,–,–,–,–,–,–,–,–
CN1CCN(C)CCN(Cc2cc(/C=C/c3ccc(-c4ccc(N(C)C)cc4)s3)cc(CN3CCN(C)CCN(C)CC3)c2O)CC1 [ZY-5-DT],–,1670 nM,1.6,2090 nM,1.7,1.03 ± 0.122,> 80%,–,–,–,–,–
CN1CCN(C)CCN(Cc2cc(/C=C/c3ccc(-c4ccc(N(C)C)cc4)s3)ccc2O)CC1 [ZY-5-MT],–,1820 nM,2.1,460 nM,4.9,0.997 ± 0.031,> 80%,1430 nM,3.9 times,higher binding affinity to oligomers over fibrils,0.84,–
CN1CCN(C)CCN(Cc2cc(-c3ccc(/C=C/c4ccc(N(C)C)cc4)s3)cc(CN3CCN(C)CCN(C)CC3)c2O)CC1 [ZY-12-DT],–,1380 nM,3.5,670 nM,3.7,1.13 ± 0.045,–,–,–,higher binding affinity to oligomers over fibrils,0.52,higher cytotoxicity than others
CN1CCN(C)CCN(Cc2cc(/C=C/c3ccc(-c4ccc(C=O)cc4)s3)cc(CN3CCN(C)CCN(C)CC3)c2O)CC1 [ZY-15-DT],–,1270 nM,2.9,4550 nM,1.2,1.16 ± 0.026,–,–,–,–,–,–
COc1cc(OC)cc(-c2ccc(/C=C/c3ccc(O)c(CN4CCN(C)CCN(C)CC4)c3)cc2)c1 [ZY-17-MT],–,940 nM,5.5,2080 nM,2.0,0.81 ± 0.079,> 80%,–,–,–,–,–

# Source: article PMC9645390, “Amphiphilic stilbene derivatives attenuate the neurotoxicity of soluble Aβ42 oligomers by controlling their interactions with cell membranes” (Chemical Science, 2022)
